Experimental data: patent publication US20240093034A1, “FLUORESCENT DYES” (EXOPHARM LIMITED, priority 2020, published 2024)

What was measured:
[1] = system: platelet-derived EVs; assay: Labelling of extracellular vesicles with dyes (Superose 6 HPLC, UV and FLD detection); details: EV + 2 μM dye
Protocol: Labelling of extracellular vesicles (EVs) with dyes 1-10 was performed according to the following procedure. 20 μL of platelet-derived EVs were incubated in HPLC vials with or without each dye at a final concentration of 2 μM dye, the dye stock solution being made up in water. For negative controls, an equivalent volume of the diluent solution was added to the EV solution. The sample was mixed gently. Each sample was subsequently incubated for 1 hr at 37° C. Samples were transferred and stored in the autosampler set at 4° C. A batch table was setup that injected unlabelled EVs prior to labelled EVs. A blank injection was run after each labelled EV experiment to ensure there was no carryover. 15 μL of each sample was injected onto a Superose 6 Increase column (3.2/300) from Cytiva. The flow rate was set at 0.15 mL min* The Shimadzu BioHPLC was run in isocratic mode with Buffer A: 1× PBS (phosphate-buffered saline), pH 7.4, 100 nm filtered. The column oven temperature was set at 30° C. Total run duration was 30 min. Data was collected using two detectors. The PDA (UV detector) was set to scan from 190-800 nm and a channel of the FLD (fluorescence detector) was set at 562 nm/583 nm (Ex/Em). Titration experiments were conducted to confirm that excess dye was removed. The areas of the void peaks from the 214 nm absorption and the 583 nm emission were calculated by the LabSolutions software using the manual integration function. To normalise the fluorescent signal, the total fluorescent area was divided by the UV 214 nm area. This ratio can be used to rank each dye, with higher ratios indicative of greater incorporation.

[2] = system: MSC-EVs; assay: Dye labelling of MSC-EV preparations analysed by imaging flow cytometry (IFCM)
Protocol: MSC-EVs were prepared form human platelet lysate containing MSC-conditioned media by polyethylene glycol 6000 precipitation followed by ultracentrifugation, as described previously (Borger, V. et al, 2020, Scaled Isolation of Mesenchymal Stem/Stromal Cell-Derived Extracellular Vesicles. Curr Protoc Stem Cell Biol 55, e128; Kordelas et al., 2014, MSC-derived exosomes: a novel tool to treat therapy-refractory graft-versus-host disease. Leukemia 28, 970-973; Ludwig et al., 2018, Precipitation with polyethylene glycol followed by washing and pelleting by ultracentrifugation enriches extracellular vesicles from tissue culture supernatants in small and large scales. J Extracell Vesicles 7, 1528109). Conditioned media were harvested every 48 h. Obtained MSC-EV preparations were diluted in NaCl-HEPES buffer (Sigma-Aldrich, Taufkirchen, Germany) such that 1 mL of final samples contained the preparation yield of the conditioned media of approximately 4.0×10^7 cells.
The staining with CFSE (Thermo Fisher Scientific, Darmstadt, Germany) was based on the manufacturer's protocol. Slight modifications were required to reduce the signal from unbound CFSE. Briefly, the CFSE stock solution was diluted to a working solution of 10 μM CFSE. The solution was centrifuged three times for 10 min at 17,000 × g. Subsequently, 25 μL of MSC-EV preparations, corresponding to the amount of EVs derived from 1×10^6 MSCs, were incubated with the centrifuged CFSE solution for 20 min at 37° C. The sample was diluted 1:20 to a final volume of 1 mL prior to analysis.
The staining of MSC-EV preparations with Calcein AM followed the manufacturer's instructions. Briefly, 25 μL of MSC-EV preparations were incubated with 25 μL of a 20 μM solution of Calcein AM (Thermo Fisher Scientific) for 40 min at 37° C. The sample was diluted 1:20 to a final volume of 1 mL to reduce background noise, avoiding the requirement of a washing step.
The staining of MSC-EV preparations with BODIPY-TR-Ceramide followed the manufacturer's instructions. Briefly, 25 μL of the MSC-EV preparation, corresponding to EVs purified from […], were incubated with 25 μL of a 20 μM solution of BODIPY TR Ceramide (Thermo Fisher Scientific) for 20 min at 37° C. 450 μL of 0.9% NaCl with 10mM HEPES (0.9% NaCl, Melsungen, B. Braun; HEPES, Thermo Fisher Scientific) buffer was added and the EVs were washed by using a Centrifugal Concentrator (Vivaspin 500; Sartorius, Gottingen, Germany). The retentate was adjusted to 500 μL prior to analysis.
The staining of MSC-EV preparations with PKH67 followed the manufacturer's instructions for labeling EVs (Thermo Fisher Scientific). Briefly, using 200 μL of given MSC-EV preparations, corresponding to EVs purified from 8×10^6 cells, the solution was adjusted with Diluent C to a final volume of 1 mL. […]

What does the source list for `CCCCCCCCCCCCCCCCCCN(C)C(=O)c1ccccc1-c1c2ccc(=[N+](CC)CC)cc-2oc2cc(N(CC)CC)ccc12.[Cl-]` [Dye 2, Rhodamine B N-methyloctadecylamide]?
FLD area (EV + dye) ([1]; 1 hr 37° C., void peak area, 562 nm/583 nm (Ex/Em)): 2493643; Area FLD/Area UV (EV + dye) ([1]; higher ratio = greater incorporation): 4.50; labelling of sEVs in MSC-EV preparations (conclusion) ([2]; IFCM, with anti-CD9, anti-CD63, anti-CD81 counterstaining where done): successfully labels most of the sEVs; labelled objects in MSC-EV preparations (FIG. 8) ([2]; dye + MSC-EVs): solid populations of labelled objects were observed
